Reference: patent US11820763B2, “Bromophenol-pyrazoline compound and synthesis method and use thereof” (Lead High Technology (QingDao) Co., Ltd, priority 2020, dated 2023)

Tested on: COVID-19 virus
Assay: Inhibition of COVID-19 virus replication in Vero E6 cells (vRNA in supernatant by qRT-PCR)
Assay type: cell-based, COVID-19 virus (clinical isolates) in Vero E6 cells
Details: for antiviral effect (viral RNA replication): Vero cells infected with COVID-19 virus, MOI 0.05, compound at concentrations of 30 μM and 10 μM, FIG. 2
Method: In order to further confirm the results of enzyme inhibition in vitro, whether the bromophenol-pyrazoline compounds can prevent COVID-19 virus replication in Vero E6 cells infected with clinical isolates of COVID-19 virus was evaluated in the present invention.
Specific operations: The pre-seeded Vero E6 cells (5×10^4 cells/well) were pre-treated for 1 hr with various concentrations of bromophenol-pyrazoline compounds to be tested, and then infected for 2 hrs by adding COVID-19 virus (with an MOI of 0.05). Then, the mixture of the virus and compound was removed, and the cells were further incubated in a fresh medium containing the bromophenol-pyrazoline compound. After 24 hrs, the cell supernatant was collected, and the vRNA in the supernatant was analyzed by qRT-PCR.

Row | Structure (SMILES) | EC50 (Severe acute respiratory syndrome coronavirus 2, Vero C1008, read-out: EC50, inhibition of virus replication) | antiviral effect (viral RNA replication)
1 | CCOc1ccc(Oc2ccc(C3=NNC(c4cc(O)c(O)c(Br)c4Br)C3)cc2)cc1 (stereo not shown) [Compound 6a, 3,4-dibromo-5-(3-(4-(4-ethoxyphenoxy)phenyl)-4,5-dihydro-1H-pyrazol-5-yl)-1,2-dihydroxybenzene] | 4.45 µM | strong antiviral effects
2 | CCOc1ccc(Oc2ccc(C3=NN(C=O)C(c4cc(O)c(O)c(Br)c4Br)C3)cc2)cc1 (stereo not shown) [Compound 6b, 5-(2,3-dibromo-4,5-dihydroxyphenyl)-3-(4-(4-ethoxyphenoxy)phenyl)-4,5-dihydro-1H-pyrazol-1-carboxaldehyde] | – | strong antiviral effects
3 | CCOc1ccc(Oc2ccc(C3=NN(C(C)=O)C(c4cc(O)c(O)c(Br)c4Br)C3)cc2)cc1 (stereo not shown) [Compound 6c, 5-(2,3-dibromo-4,5-dihydroxyphenyl)-3-(4-(4-ethoxyphenoxy)phenyl)-4,5-dihydro-1H-1-acetyl pyrazole] | – | strong antiviral effects
